This is an account of results in patent US6218102A, “Synthetic peptides and mixtures thereof for detecting HIV antibodies” (priority 1988, dated 2001).

Ends that are not written are not given here. Peptide text beside a SMILES is read from it.

The test system of one test is Antibodies to HIV-1. The experiment in a line: ELISA with peptide or peptide mixture as antigen, identifying HIV-1 positive sera. Format: binding, human. As to conditions: single p 24 peptide, Free, HIV-1 positive sera, Table 3. As for the experimental part: According to this test a peptide or a peptide mixture of the present invention is adsorbed onto the wells of a microtiter plate. The wells are then treated with sera to be tested. After washing, anti-human IgG labeled with peroxidase is added to the wells. The determination of the peroxidase is performed with a corresponding substrate, e.g. with o-phenylene diamine. Also in this procedure the peroxidase can be exchanged by another label, e.g. by a radioactive or fluorescence label.
Each well of the microtiter plate is saturated with 100 μl of a solution containing a peptide or mixture of peptides (5 μg/ml) and left overnight. The wells are emptied and washed twice with a washing buffer (Tris, 0.043M; NaCl, 0.5M; thimerosal, 0.01% w/v; Tween 20, 0.05% v/v; pH7.4). The wells are then saturated with 0.35 ml of washing buffer for 1 hr. at 37° C. and washed once with the same buffer. Serum samples to be analyzed are diluted with specimen buffer (washing buffer plus casein, 0.05% w/v). The wells are rinsed with washing buffer prior to the addition of the diluted serum sample (0.1 ml). These are left to incubate for 1 hr. at room temperature. The wells are then emptied, washed twice rapidly and then once for two minutes with washing buffer. […] The wells are then emptied and washed twice rapidly with washing buffer and then five times in which the buffer was in contact with the well 2 minutes per washing. The substrate solution (3,3', 5,5'-tetramethylbenzidine, 8 mg per ml of DMSO) is diluted with 100 volumes 0.1M citrate-acetate buffer, pH 5.6 containing 0.1% v/v of 30% H2 O2 and added to each well (0.1 ml per well). After 10 minutes the contents of each well is treated with 0.1 ml 2N H2 SO4 and the optical density read at 450 nm. All determinations are done in duplicate.
“CGNNPPIPVGE [Peptide 41, NH2 -CGNNPPIPVGE-COOH]”: the “% Positive Sera Correctly Identified” value is recorded as 63%. As to “CGRAEQASQEVKN [Peptide 46, NH2 -CGRAEQASQEVKN-COOH]”, the “% Positive Sera Correctly Identified” value amounted to 0%.

Staying with this test, now noted: single p 24 peptide, coupled, HIV-1 positive sera, Table 3.
Turning to “CGNNPPIPVGE [Peptide 41, NH2 -CGNNPPIPVGE-COOH]”, the “% Positive Sera Correctly Identified” value was 73%. “CGRAEQASQEVKN [Peptide 46, NH2 -CGRAEQASQEVKN-COOH]”: the “% Positive Sera Correctly Identified” value is on record as 93%.

The test is the same for the next values; noted with them: single peptide, known HIV-1 positive sera, Table 3.
Take `CC[C@H](C)[C@H](NC(=O)[C@H](CCC(N)=O)NC(=O)[C@H](CCC(=O)O)NC(=O)[C@H](CC(C)C)NC(=O)[C@H](CO)NC(=O)[C@H](CCCCN)NC(=O)[C@H](CC(N)=O)NC(=O)[C@H](CO)NC(=O)[C@H](Cc1c[nH]c2ccccc12)NC(=O)[C@H](CO)NC(=O)[C@H](C)NC(=O)[C@H](CC(N)=O)NC(=O)[C@H](Cc1c[nH]c2ccccc12)NC(=O)[C@@H]1CCCN1C(=O)[C@@H](NC(=O)[C@H](C)NC(=O)[C@@H](NC(=O)[C@@H](NC(=O)[C@@H]1CSSC[C@H](NC(=O)CN)C(=O)N[C@@H](CO)C(=O)NCC(=O)N[C@@H](CCCCN)C(=O)N[C@@H](CC(C)C)C(=O)N[C@@H]([C@@H](C)CC)C(=O)N1)[C@@H](C)O)[C@@H](C)O)C(C)C)C(=O)O` [Peptide 96] (HELM PEPTIDE1{G.C.S.G.K.L.I.C.T.T.A.V.P.W.N.A.S.W.S.N.K.S.L.E.Q.I}$PEPTIDE1,PEPTIDE1,2:R3-8:R3$$$V2.0): the “% Positive Sera Correctly Identified” value came to 100%. Consider CGKIEPLGVAPTKAKRRVVQREKR [Peptide 71], for which the “% Positive Sera Correctly Identified” value came to 83%. Still for that read-out and setting: with GHACVPTDPNPQEVVL [Peptide 14] the figure was 50%. On to “NH2 -CGLGIWGCSGKLICTTAVPWNASWSNKSLEQI-COOH [Peptide 98]”, for which the “% Positive Sera Correctly Identified” value turned out to be 100%. Same read-out and setting: with “NH2 -CGVERYLKQQLLGIWGCSGKLICTTAVPWNASWSNKSLEQI-COOH [Peptide 99]” the figure was 100%; with “NH2 -CGYLKDQQLLGIWGCSGKLICTTAVPWNASWSNKSLEQI-COOH [Peptide 97]”, 100%.

As for “NH2 -FAFAFGCSGKLICTTAVPWNASWSNKSLEQI-COOH [Peptide 91]”, the “% Positive Sera Correctly Identified” value is 94%. “NH2 -GCSGKLICTTAVPWNASWSWSNKSLEQI-COOH [Peptide 95]”: the “% Positive Sera Correctly Identified” value is listed as 100%.

On to “NH2 -IWGCSGKLICTTAVPWNAS-COOH (H-IWGCSGKLICTTAVPWNAS-OH; cysteine pairing not given here) [Peptide 78, gp 41 602-620]”, for which the “% Positive Sera Correctly Identified” value was found to be 100%.

Turning to “NH2 -SGKLICTTAVPWNASWSNKSLEQGC-COOH [Peptide 56]”, the “% Positive Sera Correctly Identified” value was 100%. As to “NH2 -VERYLKDQQLLGIWGCSGKLICTTAVPWNAS-COOH (H-VERYLKDQQLLGIWGCSGKLICTTAVPWNAS-OH; cysteine pairing not given here) [Peptide 81, gp 41 590-620]”, the “% Positive Sera Correctly Identified” value was 100%. Still for that read-out and setting: with “TKAKRRVVQREKRGAVGIGALFLGFLGAAGSG [Peptide 93]” the figure was 37%; with TTAVPWNASWSNKSLEQGC [Peptide 42], 5%.
